According to US9738634B2, “Heterocyclic amide compound and herbicide” (SYNGENTA PARTICIPATIONS AG, priority 2013, dated 2017):

Tests used:
Type in all cases: in vivo
Settings in all cases: treatment dosage 320 g/ha
rapeseed [1] = assay: Test Example 3: soil treatment, effect on crop; g: rapeseed
Outline: (§1)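 Crop and weed responses were judged three weeks after a uniform surface spray of the water-diluted emulsion at the given g/ha rate. Seeds sat beneath about 1.5 cm of sterilized diluvial soil, and boxes stood in a greenhouse at 25 to 30° C.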

oval-leafed pondweed [2] = assay: Test Example 1: weedkilling efficacy, preemergent weed treatment in the submerged state; C: oval-leafed pondweed
Outline: (§2)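 Pots of alluvial soil flooded 4 cm deep, sown with barnyard grass, bulrush and oval-leafed pondweed and transplanted with 2.5-leaf rice. Emulsified compound applied to the water surface on sowing day at stated g/ha; greenhouse 25–30 °C, effects assessed 3 weeks after treatment.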

wild oat [3] = assay: Test Example 4: weedkilling efficacy by foliar treatment; G: wild oat
Outline: (§3)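 Seeds are spot-sown into sterilized diluvial soil and covered with about 1.5 cm of soil. After 14 days' greenhouse growth at 25 to 30° C, plants are sprayed on stems and leaves with diluted emulsion at the stated g/ha rate, then scored at 3 weeks.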

directly sown rice [4] = assay: Test Example 4: foliar treatment, effect on crop; b: directly sown rice
Outline: as §3

beet [5] = assay: Test Example 4: foliar treatment, effect on crop; f: beet
Outline: as §3

corn [6] = assay: Test Example 4: foliar treatment, effect on crop; c: corn
Outline: as §3

green foxtail [7] = assay: Test Example 3: weedkilling efficacy through soil treatment; E: green foxtail
Outline: as §1

wheat [8] = assay: Test Example 3: soil treatment, effect on crop; e: wheat
Outline: as §1

Indian mallow [9] = assay: Test Example 4: weedkilling efficacy by foliar treatment; K: Indian mallow
Outline: as §3

bulrush [10] = assay: Test Example 1: weedkilling efficacy, preemergent weed treatment in the submerged state; B: bulrush
Outline: as §2

common wind-grass [11] = assay: Test Example 4: weedkilling efficacy by foliar treatment; J: common wind-grass
Outline: as §3

common wind-grass [12] = assay: Test Example 3: weedkilling efficacy through soil treatment; J: common wind-grass
Outline: as §1

wheat [13] = assay: Test Example 4: foliar treatment, effect on crop; e: wheat
Outline: as §3

black-grass [14] = assay: Test Example 4: weedkilling efficacy by foliar treatment; H: black-grass
Outline: as §3

black-grass [15] = assay: Test Example 3: weedkilling efficacy through soil treatment; H: black-grass
Outline: as §1

barnyard grass [16] = assay: Test Example 1: weedkilling efficacy, preemergent weed treatment in the submerged state; A: barnyard grass
Outline: as §2

soybean [17] = assay: Test Example 3: soil treatment, effect on crop; d: soybean
Outline: as §1

barnyard grass [18] = assay: Test Example 3: weedkilling efficacy through soil treatment; F: barnyard grass
Outline: as §1

rapeseed [19] = assay: Test Example 4: foliar treatment, effect on crop; g: rapeseed
Outline: as §3

crabgrass [20] = assay: Test Example 3: weedkilling efficacy through soil treatment; D: crabgrass
Outline: as §1

soybean [21] = assay: Test Example 4: foliar treatment, effect on crop; d: soybean
Outline: as §3

catchweed [22] = assay: Test Example 4: weedkilling efficacy by foliar treatment; O: catchweed
Outline: as §3

corn [23] = assay: Test Example 3: soil treatment, effect on crop; c: corn
Outline: as §1

beet [24] = assay: Test Example 3: soil treatment, effect on crop; f: beet
Outline: as §1

green foxtail [25] = assay: Test Example 4: weedkilling efficacy by foliar treatment; E: green foxtail
Outline: as §3

birds-eye speedwell = assay: Test Example 4: weedkilling efficacy by foliar treatment; p: birds-eye speedwell
Outline: as §3

chickweed [26] = assay: Test Example 3: weedkilling efficacy through soil treatment; N: chickweed
Outline: as §1

bulrush [27] = assay: Test Example 2: weedkilling efficacy, growth period weed treatment in the submerged state; B: bulrush
Outline: (§4)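 Barnyard grass, bulrush and oval-leafed pondweed sown in alluvial soil under 4 cm flooding, greenhouse 25 to 30° C. At 1-2 leaf stage, water-diluted emulsion applied to the water surface at stated g/ha dosages; effects scored 3 weeks later.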

Italian ryegrass [28] = assay: Test Example 3: weedkilling efficacy through soil treatment; I: Italian ryegrass
Outline: as §1

directly sown rice [29] = assay: Test Example 3: soil treatment, effect on crop; b: directly sown rice
Outline: as §1

oval-leafed pondweed [30] = assay: Test Example 2: weedkilling efficacy, growth period weed treatment in the submerged state; C: oval-leafed pondweed
Outline: as §4

crabgrass [31] = assay: Test Example 4: weedkilling efficacy by foliar treatment; D: crabgrass
Outline: as §3

Indian mallow [32] = assay: Test Example 3: weedkilling efficacy through soil treatment; K: Indian mallow
Outline: as §1

fig-leafed goosefoot [33] = assay: Test Example 4: weedkilling efficacy by foliar treatment; M: fig-leafed goosefoot
Outline: as §3

catchweed [34] = assay: Test Example 3: weedkilling efficacy through soil treatment; O: catchweed
Outline: as §1

barnyard grass [35] = assay: Test Example 2: weedkilling efficacy, growth period weed treatment in the submerged state; A: barnyard grass
Outline: as §4

Italian ryegrass [36] = assay: Test Example 4: weedkilling efficacy by foliar treatment; I: Italian ryegrass
Outline: as §3

transplanted rice = assay: Test Example 1: preemergent weed treatment in the submerged state, effect on crop; a: transplanted rice
Outline: as §2

fig-leafed goosefoot [37] = assay: Test Example 3: weedkilling efficacy through soil treatment; M: fig-leafed goosefoot
Outline: as §1

wild oat [38] = assay: Test Example 3: weedkilling efficacy through soil treatment; G: wild oat
Outline: as §1

redroot pigweed [39] = assay: Test Example 4: weedkilling efficacy by foliar treatment; L: redroot pigweed
Outline: as §3

barnyard grass [40] = assay: Test Example 4: weedkilling efficacy by foliar treatment; F: barnyard grass
Outline: as §3

redroot pigweed [41] = assay: Test Example 3: weedkilling efficacy through soil treatment; L: redroot pigweed
Outline: as §1

chickweed [42] = assay: Test Example 4: weedkilling efficacy by foliar treatment; N: chickweed
Outline: as §3

CC1=C(c2ccccc2)C(=O)N(C(C)(C)C(=O)Nc2cc(-c3ccc(F)nc3)ccn2)CO1 [B-5-01]
g (rapeseed) effect on crop grade (rapeseed [1]): 0 (weed kill ratio 5% or less (practically no effect)) | C (oval-leafed pondweed) weedkilling efficacy grade (oval-leafed pondweed [2]): 4 (weed kill ratio 70% or more, less than 90%) | G (wild oat) weedkilling efficacy grade (wild oat [3]): 0 (weed kill ratio 5% or less (practically no effect)) | b (directly sown rice) effect on crop grade (directly sown rice [4]): 0 (weed kill ratio 5% or less (practically no effect)) | f (beet) effect on crop grade (beet [5]): 0 (weed kill ratio 5% or less (practically no effect)) | c (corn) effect on crop grade (corn [6]): 0 (weed kill ratio 5% or less (practically no effect)) | E (green foxtail) weedkilling efficacy grade (green foxtail [7]): 2 (weed kill ratio 20% or more, less than 40%) | e (wheat) effect on crop grade (wheat [8]): 0 (weed kill ratio 5% or less (practically no effect)) | K (Indian mallow) weedkilling efficacy grade (Indian mallow [9]): 0 (weed kill ratio 5% or less (practically no effect)) | B (bulrush) weedkilling efficacy grade (bulrush [10]): 5 (weed kill ratio 90% or more, (practically complete withering)) | J (common wind-grass) weedkilling efficacy grade (common wind-grass [11]): 0 (weed kill ratio 5% or less (practically no effect)) | J (common wind-grass) weedkilling efficacy grade (common wind-grass [12]): 4 (weed kill ratio 70% or more, less than 90%) | e (wheat) effect on crop grade (wheat [13]): 0 (weed kill ratio 5% or less (practically no effect)) | H (black-grass) weedkilling efficacy grade (black-grass [14]): 0 (weed kill ratio 5% or less (practically no effect)) | H (black-grass) weedkilling efficacy grade (black-grass [15]): 0 (weed kill ratio 5% or less (practically no effect)) | A (barnyard grass) weedkilling efficacy grade (barnyard grass [16]): 4 (weed kill ratio 70% or more, less than 90%) | d (soybean) effect on crop grade (soybean [17]): 0 (weed kill ratio 5% or less (practically no effect)) | F (barnyard grass) weedkilling efficacy grade (barnyard grass [18]): 0 (weed kill ratio 5% or less (practically no effect)) | g (rapeseed) effect on crop grade (rapeseed [19]): 0 (weed kill ratio 5% or less (practically no effect)) | D (crabgrass) weedkilling efficacy grade (crabgrass [20]): 0 (weed kill ratio 5% or less (practically no effect)) | d (soybean) effect on crop grade (soybean [21]): 0 (weed kill ratio 5% or less (practically no effect)) | O (catchweed) weedkilling efficacy grade (catchweed [22]): 1 (weed kill ratio 5% or more, less than 20%) | c (corn) effect on crop grade (corn [23]): 0 (weed kill ratio 5% or less (practically no effect)) | f (beet) effect on crop grade (beet [24]): 0 (weed kill ratio 5% or less (practically no effect)) | E (green foxtail) weedkilling efficacy grade (green foxtail [25]): 0 (weed kill ratio 5% or less (practically no effect)) | P (birds-eye speedwell) weedkilling efficacy grade (birds-eye speedwell): 3 (weed kill ratio 40% or more, less than 70%) | N (chickweed) weedkilling efficacy grade (chickweed [26]): 0 (weed kill ratio 5% or less (practically no effect)) | B (bulrush) weedkilling efficacy grade (bulrush [27]): 3 (weed kill ratio 40% or more, less than 70%) | I (Italian ryegrass) weedkilling efficacy grade (Italian ryegrass [28]): 0 (weed kill ratio 5% or less (practically no effect)) | b (directly sown rice) effect on crop grade (directly sown rice [29]): 0 (weed kill ratio 5% or less (practically no effect)) | C (oval-leafed pondweed) weedkilling efficacy grade (oval-leafed pondweed [30]): 4 (weed kill ratio 70% or more, less than 90%) | D (crabgrass) weedkilling efficacy grade (crabgrass [31]): 0 (weed kill ratio 5% or less (practically no effect)) | K (Indian mallow) weedkilling efficacy grade (Indian mallow [32]): 0 (weed kill ratio 5% or less (practically no effect)) | M (fig-leafed goosefoot) weedkilling efficacy grade (fig-leafed goosefoot [33]): 3 (weed kill ratio 40% or more, less than 70%) | O (catchweed) weedkilling efficacy grade (catchweed [34]): 0 (weed kill ratio 5% or less (practically no effect)) | A (barnyard grass) weedkilling efficacy grade (barnyard grass [35]): 3 (weed kill ratio 40% or more, less than 70%) | I (Italian ryegrass) weedkilling efficacy grade (Italian ryegrass [36]): 0 (weed kill ratio 5% or less (practically no effect)) | a (transplanted rice) effect on crop grade (transplanted rice): 0 (weed kill ratio 5% or less (practically no effect)) | M (fig-leafed goosefoot) weedkilling efficacy grade (fig-leafed goosefoot [37]): 0 (weed kill ratio 5% or less (practically no effect)) | G (wild oat) weedkilling efficacy grade (wild oat [38]): 0 (weed kill ratio 5% or less (practically no effect)) | L (redroot pigweed) weedkilling efficacy grade (redroot pigweed [39]): 0 (weed kill ratio 5% or less (practically no effect)) | F (barnyard grass) weedkilling efficacy grade (barnyard grass [40]): 0 (weed kill ratio 5% or less (practically no effect)) | L (redroot pigweed) weedkilling efficacy grade (redroot pigweed [41]): 0 (weed kill ratio 5% or less (practically no effect)) | N (chickweed) weedkilling efficacy grade (chickweed [42]): 0 (weed kill ratio 5% or less (practically no effect))
